According to patent US11786497B2, “High penetration prodrug compositions of retinoids and retinoids-related compounds” (Techfields Pharma Co., Ltd., priority 2007, dated 2023):

What was measured:
[1] = system: human acute promyelocytic leukemia(APL) line; experiment: Survival of mice implanted with human acute promyelocytic leukemia line; assay type: in vivo; conditions: for None Disease Rate at day 160: animals out of 7; for Life Elongation Rate: control = 100; for Survival Period: n=7
Description: For evaluation of antitumor activity, a human acute promyelocytic leukemia(APL) line derived from a patient with acute promyelocytic leukemia (APL) was implanted into mice.

[2] = system: Lesions similar to psoriasis induced by Malassezia; experiment: Malassezia-induced lesions similar to psoriasis on rabbit skin; assay type: in vivo, Chinese white rabbits; conditions: 200 μl of 0.05% aqueous solution, topical twice per day, 3 hours after Malassezia; control lesions became worse
Description: Heavy suspensions of Malassezia [Rosenberg, E. W., et al., Mycopathologia, 72, 147-154 (1980)] were applied to shaved skin on the backs of Chinese white rabbits (n=4×10) twice (at 7 am and 7 pm respectively) per day for 2 weeks. […] The control group was only applied with Malassezia.

[3] = In vitro penetration across human skin in modified Franz cells
Experimental: In each case, the vehicle was a pH 7.4 phosphate buffer (0.2 M).
Penetration rates of HPPs and their parent drugs through human skin were measured in vitro by modified Franz cells. A Franz cell had two chambers, the top sample chamber and the bottom receiving chamber. The human skin tissue (360-400 μm thick) that separated the top and the receiving chambers was isolated from the anterior or posterior thigh areas.
A compound tested (0.2 mL, 5% in 0.2 M phosphate buffer, pH 7.4) were added to the sample chamber of a Franz cell. The receiving chamber contains 2 ml of 2% bovine serum albumin in saline which was stirred at 600 rpm. The amount of the tested compound penetrating the skin was determined by high-performance liquid chromatography (HPLC) method.

[4] = system: human breast cancer cells (BCAP-37); experiment: Antitumor activity against human breast cancer cells implanted into nude mice; assay type: in vivo, nude mice (BALB); conditions: 50 μl of 1% in 0.2M pH 7.4 phosphate buffer, topically to implanted area twice per day from day 3; control 100% incidence
Description: For evaluation of antitumor activity of these prodrugs, human breast cancer cells (BCAP-37) were implanted into nude mice (BALB). […] The average weight of the treated group was 25 grams and that of the control group was 21 grams.

[5] = Conversion of HPPs to parent drugs in human plasma (half life); assay type: in vitro ADME; conditions: 37° C., HPLC
Experimental: HPPs of retinoids or retinoid-related compounds converted to the parent retinoids or retinoid-related compounds quickly in good yield in human plasma.
A HPP of retinoids or retinoid-related compound (10 mg) was dissolved in 0.1 ml of 0.2M pH 7.4 phosphate buffer. 1 ml of human plasma, preheated to 37° C., was added into the mixture. The mixture was kept in a water bath at 37° C., and at every 2 min intervals 0.2 ml of samples were withdrawn and added to 0.4 ml of methanol to precipitate the plasma protein. The samples were centrifuged for 5 min and analyzed by HPLC.

[6] = Irritative effect or discomfort on skin of mice after topical application; assay type: in vivo; conditions: 0.1 ml of 0.5% in pH 7.4 phosphate buffer to back of nude mice twice per day, 1 week
Experimental: Irritative effect or discomfort in the skin of mice of HPPs of retinoids or retinoid-related compounds was evaluated during a period of 1 week after the topical application of 0.1 ml of 0.5% of the respective test drug in pH 7.4 phosphate buffer (0.2 M) to the back of nude mice twice per day.

[7] = Solubility in water; assay type: physicochemical
Experimental: 30 g (0.1 mol) of sodium 9-cis-retinoate was dissolved in 100 ml of acetonitrile. 26.1 g (0.1 mol) of 2-Bromo-N,N-diethylethylamine·HBr was added into the reaction mixture. The mixture was stirred for overnight at RT. The solvents were evaporated off. 200 ml of ethanol was added into the residue. The solid was removed by filtration. The solution was evaporated to dryness. 100 ml of ethyl acetate was added into the reaction mixture. Hexane (100 ml) was added. The solid product was collected by filtration. After drying, it yielded 36 g of the desired product (75%). Hygroscopic product; solubility in water: 30 mg/ml; elementary analysis: C26H42BrNO2; MW: 480.52; calculated % C: 64.99; H: 8.81; Br: 16.63; N: 2.91; O: 6.66; found % C: 65.03; H: 8.80; Br: 16.60; N: 2.89; O: 6.68.
30 g (0.1 mol) of sodium 13-cis-retinoate was dissolved in 100 ml of acetonitrile. 26.1 g (0.1 mol) of 2-Bromo-N,N-diethylethylamine·HBr was added into the reaction mixture. The mixture was stirred for overnight at RT. The solvents were evaporated off. 200 ml of ethanol was added into the residue. The solid was removed by filtration. The solution was evaporated to dryness. 100 ml of ethyl acetate was added into the reaction mixture. Hexane (100 ml) was added. The solid product was collected by filtration. After drying, it yielded 36 g of the desired product (75%). […]

[8] = 10 mg/kg per day, transdermally
[9] = parent compound, 5% suspension in pH 7.4 phosphate buffer (0.2 M), isolated human skin, Franz cells, n=5

## C=C(c1ccc(C(=O)OCN2CCCC2)cc1)c1cc2c(cc1C)C(C)(C)CCC2(C)C.Cl
[1]; 5 mg/kg per day, transdermally
  None Disease Rate at day 160: 5/7
  Life Elongation Rate: 306%
  Survival Period: 96.5 ± 4.4 days
[1]; [8]
  None Disease Rate at day 160: 6/7
  Life Elongation Rate: 529%
  Survival Period: 166.5 ± 5.4 days

## Br.CC1=C(/C=C/C(C)=C/C=C/C(C)=C/C(=O)OCCN2CCCCC2)C(C)(C)CCC1
[2]
  lesions 10 days after application of Malassezia and HPP: resolved
[1]; 5 mg/kg per day, transdermally
  None Disease Rate at day 160: 4/7
  Life Elongation Rate: 278%
  Survival Period: 87.8 ± 3.4 days
[1]; [8]
  None Disease Rate at day 160: 5/7
  Life Elongation Rate: 429%
  Survival Period: 135.2 ± 5.9 days

## Br.CC1=C(/C=C/C(C)=C\C=C\C(C)=C\C(=O)OCCN2CCCCC2)C(C)(C)CCC1 [9-cis-retinoic acid 1-piperidineethyl ester·HBr]
[3]; HPP, 5% solution in pH 7.4 phosphate buffer (0.2 M), isolated human skin, Franz cells, n=5
  In vitro Penetration Rate (apparent flux) of HPPs: 0.67 mg/cm^2/h

## Br.CC1=C(/C=C/C(C)=C\C=C\C(C)=C\C(=O)OCC2CCCN2)C(C)(C)CCC1 (stereo not drawn) [9-cis-retinoic acid 2-pyrrolidinemethyl ester·HBr]
[1]; 5 mg/kg per day, transdermally
  None Disease Rate at day 160: 3/7
  Life Elongation Rate: 230%
  Survival Period: 72.5 ± 4.6 days
[1]; [8]
  None Disease Rate at day 160: 5/7
  Life Elongation Rate: 385%
  Survival Period: 121.2 ± 4.8 days

## CC1=C(/C=C/C(C)=C\C=C\C(C)=C\C(=O)O)C(C)(C)CCC1 [9-cis-retinoic acid (alitretinoin), 9-cis-retinoic acid, reference compound]
[1]; 5 mg/kg per day, orally
  None Disease Rate at day 160: 1/7
  Life Elongation Rate: 144%
  Survival Period: 45.5 ± 2.3 days
[1]; 10 mg/kg per day, orally
  None Disease Rate at day 160: 3/7
  Life Elongation Rate: 207%
  Survival Period: 65.2 ± 4.1 days
[3]; [9]
  In vitro Penetration Rate (apparent flux) of Parent compounds: 0.005 mg/cm^2/h

## CC1=C(/C=C/C(C)=C/C=C/C(C)=C\C(=O)O)C(C)(C)CCC1 [13-cis-retinoic acid (isotretinoin), 13-cis-retinoic acid]
[3]; [9]
  In vitro Penetration Rate (apparent flux) of Parent compounds: 0.005 mg/cm^2/h

## C=C(c1ccc(C(=O)OCCN(CC)CC)cc1)c1cc2c(cc1C)C(C)(C)CCC2(C)C.Cl [N,N-diethylaminoethyl 4-[1-(5,6,7,8-tetrahydro-3,5,5,8,8-pentamethyl-2-naphthalenyl)ethenyl]benzoate·HCl]
[3]; pH 7.4
  In vitro Penetration Rate (apparent flux) of HPPs: 0.35 mg/cm^2/h
[4]
  tumor seen after 20 days: none of tumor was seen
[5]
  Half life of HPPs in plasma: 15 ± 1 min
[6]
  signs of irritative effect or discomfort: None of any signs of irritative effect or discomfort

## Br.CCN(CC)CCOC(=O)/C=C(C)/C=C/C=C(C)\C=C\C1=C(C)CCCC1(C)C [N,N-diethylaminoethyl 9-cis-retinoate·HBr]
[2]
  lesions 10 days after application of Malassezia and HPP: resolved
[4]
  tumor seen after 20 days: none of tumor was seen
[7]
  solubility in water: 30 mg/mL
[5]
  Half life of HPPs in plasma: 12 ± 1 min
[6]
  signs of irritative effect or discomfort: None of any signs of irritative effect or discomfort

## Br.CCN(CC)CCOC(=O)\C=C(C)/C=C/C=C(C)/C=C/C1=C(C)CCCC1(C)C [N,N-diethylaminoethyl 13-cis-retinoate·HBr]
[3]; pH 7.4
  In vitro Penetration Rate (apparent flux) of HPPs: 0.85 mg/cm^2/h
[7]
  solubility in water: 30 mg/mL
[5]
  Half life of HPPs in plasma: 13 ± 1 min
[6]
  signs of irritative effect or discomfort: None of any signs of irritative effect or discomfort

## Br.CCN(CC)CCOC(=O)/C=C(C)/C=C/C=C(C)/C=C/C1=C(C)CCCC1(C)C [N,N-diethylaminoethyl all-trans-retinoate·HBr]
[3]; pH 7.4
  In vitro Penetration Rate (apparent flux) of HPPs: 1.25 mg/cm^2/h
[5]
  Half life of HPPs in plasma: 11 ± 1 min
[6]
  signs of irritative effect or discomfort: None of any signs of irritative effect or discomfort

## CC1=C(/C=C/C(C)=C/C=C/C(C)=C/C(=O)O)C(C)(C)CCC1 [all-trans-retinoic acid (tretinoin), all-trans-retinoic acid, reference compound]
[1]; 5 mg/kg per day, orally
  None Disease Rate at day 160: 0/7
  Life Elongation Rate: 158%
  Survival Period: 49.7 ± 3.6 days
[1]; 10 mg/kg per day, orally
  None Disease Rate at day 160: 2/7
  Life Elongation Rate: 249%
  Survival Period: 78.5 ± 3.7 days
[3]; [9]
  In vitro Penetration Rate (apparent flux) of Parent compounds: 0.005 mg/cm^2/h

## C=C(c1ccc(C(=O)O)cc1)c1cc2c(cc1C)C(C)(C)CCC2(C)C [bexaroten (Targretin ®), reference compound]
[1]; 5 mg/kg per day, orally
  None Disease Rate at day 160: 3/7
  Life Elongation Rate: 205%
  Survival Period: 64.5 ± 3.7 days
[1]; 10 mg/kg per day, orally
  None Disease Rate at day 160: 5/7
  Life Elongation Rate: 302%
  Survival Period: 95.2 ± 3.9 days
[3]; lowest detectable flux 1 μg/cm^2/h, considered not detectable
  apparent flux value of parent drug: 1 μg/cm^2/h
[3]; [9]
  In vitro Penetration Rate (apparent flux) of Parent compounds: 0.001 mg/cm^2/h

## CC1=C(/C=C/C(C)=C/C=C/C(C)=C/COC(=O)CN(C)C)C(C)(C)CCC1.Cl [retinyl N,N-dimethyl-2-aminoacetate·HCl]
[3]; pH 7.4
  In vitro Penetration Rate (apparent flux) of HPPs: 1.21 mg/cm^2/h
[5]
  Half life of HPPs in plasma: 20 ± 1 min
[6]
  signs of irritative effect or discomfort: None of any signs of irritative effect or discomfort

## CC1=C(/C=C/C(C)=C/C=C/C(C)=C/CO)C(C)(C)CCC1 [vitamin A (retinol), retinol]
[3]; human, 5 %, pH 7.4
  In vitro Penetration Rate (apparent flux) of Parent compounds: 0.005 mg/cm^2/h
